The target in the experiment is T1, human M4 receptor (Homo sapiens, UniProt P08173).
T1 construct: expressed in transfected cells; host or cells: CHO cells
T1 sequence (P08173 1-479): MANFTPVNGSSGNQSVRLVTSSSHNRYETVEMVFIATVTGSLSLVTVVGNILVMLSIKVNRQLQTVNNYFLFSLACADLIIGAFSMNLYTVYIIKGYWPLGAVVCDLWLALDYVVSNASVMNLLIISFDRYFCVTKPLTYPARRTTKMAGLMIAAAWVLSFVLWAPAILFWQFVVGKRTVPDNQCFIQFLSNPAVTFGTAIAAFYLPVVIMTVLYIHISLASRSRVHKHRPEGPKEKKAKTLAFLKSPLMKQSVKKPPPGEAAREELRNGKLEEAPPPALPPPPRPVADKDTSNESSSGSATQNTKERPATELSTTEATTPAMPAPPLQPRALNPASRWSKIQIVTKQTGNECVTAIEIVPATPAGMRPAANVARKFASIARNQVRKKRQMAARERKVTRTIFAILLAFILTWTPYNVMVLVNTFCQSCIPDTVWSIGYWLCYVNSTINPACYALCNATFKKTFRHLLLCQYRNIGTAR
Kind of experiment: Radioligand ([3H]N-methylscopolamine) binding assay, membranes from CHO cells expressing human M4 receptor. To be noted: Ki against human M4 receptor; membranes from CHO cells; tritiated N-methylscopolamine 1.5 nM; read-out: K. Put shortly: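 Competition binding used CHO-cell membranes expressing human M4 with 1.5 nM [3H]N-methylscopolamine and twelve compound concentrations ([…]). Incubation was 90 minutes at 37 °C in 50 mM HEPES, 100 mM NaCl, 5 mM MgCl2, 1 mM EDTA, pH 7.4. Bound ligand was collected by filtration onto PEI-treated glass fibre for Ki.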
Regarding `C[C@@H]1CN(c2ncc(C(F)(F)F)cn2)CCN1C(=O)OC1CC2(C1)CN(Cc1ccc(F)cc1)C2` [Compound 457, 2-[(4-fluorophenyl)methyl]-2-azaspiro[3.3]heptan-6-yl (2R)-2-methyl-4-[5-(trifluoromethyl)pyrimidin-2-yl]piperazine-1-carboxylate], the Ki lay in the range of 100 to 1000 nM. Then `C[C@@H]1CN(c2cnc(C(F)(F)F)cn2)CCN1C(=O)OC1CC2(C1)CN(Cc1ccc(F)cc1)C2` [Compound 458, 2-[(4-fluorophenyl)methyl]-2-azaspiro[3.3]heptan-6-yl (2R)-2-methyl-4-[5-(trifluoromethyl)pyrazin-2-yl]piperazine-1-carboxylate], with 10 to 100 nM. For the compound `C[C@@H]1CN(c2ncc(OC(F)F)cn2)C[C@H](C)N1C(=O)OC1CC2(C1)CN(Cc1ccccc1)C2` [Compound 462, 2-benzyl-2-azaspiro[3.3]heptan-6-yl (2R,6S)-4-[5-(difluoromethoxy)pyrimidin-2-yl]-2,6-dimethylpiperazine-1-carboxylate], the Ki is below 10 nM. Then `C[C@@H]1CN(c2ncc(C(F)(F)F)c(N)n2)C[C@H](C)N1C(=O)OC1CC2(C1)CN(Cc1ccccc1)C2` [Compound 463, 2-benzyl-2-azaspiro[3.3]heptan-6-yl (2R,6S)-4-[4-amino-5-(trifluoromethyl)pyrimidin-2-yl]-2,6-dimethylpiperazine-1-carboxylate], with below 10 nM; and `C[C@@H]1CN(c2ncc(C(F)F)cn2)C[C@H](C)N1C(=O)OC1CC2(C1)CN(Cc1ccccc1)C2` [Compound 464, 2-benzyl-2-azaspiro[3.3]heptan-6-yl (2R,6S)-4-[5-(difluoromethyl)pyrimidin-2-yl]-2,6-dimethylpiperazine-1-carboxylate], with 10 to 100 nM; and `C[C@@H]1CN(c2ncc(OC(F)F)cn2)C[C@H](C)N1C(=O)OC1CC2(C1)CN(Cc1ccc(F)cc1)C2` [Compound 465, 2-[(4-fluorophenyl)methyl]-2-azaspiro[3.3]heptan-6-yl (2R,6S)-4-[5-(difluoromethoxy)pyrimidin-2-yl]-2,6-dimethylpiperazine-1-carboxylate], with below 10 nM. For `C[C@@H]1CN(c2ncc(C(F)(F)F)c(N)n2)C[C@H](C)N1C(=O)OC1CC2(C1)CN(Cc1ccc(F)cc1)C2` [Compound 466, 2-[(4-fluorophenyl)methyl]-2-azaspiro[3.3]heptan-6-yl (2R,6S)-4-[4-amino-5 (trifluoromethyl)pyrimidin-2-yl]-2,6-dimethylpiperazine-1-carboxylate], the Ki was below 10 nM.

Regarding `C[C@@H]1CN(c2ncc(C(F)F)cn2)C[C@H](C)N1C(=O)OC1CC2(C1)CN(Cc1ccc(F)cc1)C2` [Compound 467, 2-[(4-fluorophenyl)methyl]-2-azaspiro[3.3]heptan-6-yl (2R,6S)-4-[5-(difluoromethyl)pyrimidin-2-yl]-2,6-dimethylpiperazine-1-carboxylate], the Ki was 10 to 100 nM.

For the compound `C[C@@H]1CN(c2ncc(F)cn2)C[C@H](C)N1C(=O)OC1CC2(C1)CN(Cc1ccc(F)cc1)C2` [Compound 468, 2-[(4-fluorophenyl)methyl]-2-azaspiro[3.3]heptan-6-yl (2R,6S)-4-(5-fluoropyrimidin-2-yl)-2,6-dimethylpiperazine-1-carboxylate], the Ki was 10 to 100 nM.

For `CNC(=O)c1cnc(N2C[C@@H](C)N(C(=O)OC3CC4(C3)CN(Cc3ccccc3)C4)[C@@H](C)C2)nc1` [Compound 471, 2-benzyl-2-azaspiro[3.3]heptan-6-yl (2R,6S)-2,6-dimethyl-4-[5-(methylcarbamoyl)pyrimidin-2-yl]piperazine-1-carboxylate], the Ki fell in the range of 100 to 1000 nM.

Regarding `C[C@@H]1CN(c2ncc(C#N)cn2)C[C@H](C)N1C(=O)OC1CC2(C1)CN(Cc1ccc(F)cc1)C2` [Compound 472, 2-[(4-fluorophenyl)methyl]-2-azaspiro[3.3]heptan-6-yl (2R,6S)-4-(5-cyanopyrimidin-2-yl)-2,6-dimethylpiperazine-1-carboxylate], the Ki was in the range of 10 to 100 nM. To `C[C@@H]1CN(c2ncc(C#N)cn2)[C@@H](C)CN1C(=O)OC1CC2(C1)CN(Cc1ccc(F)cc1)C2` [Compound 473, 2-[(4-fluorophenyl)methyl]-2-azaspiro[3.3]heptan-6-yl (2R,5S)-4-(5-cyanopyrimidin-2-yl)-2,5-dimethylpiperazine-1-carboxylate] belongs 10 to 100 nM. Consider `C[C@@H]1CN(c2ncc(C#N)cn2)C[C@H](C)N1C(=O)OC1CC2(C1)CN(Cc1ccc(Cl)cc1)C2` [Compound 475, 2-[(4-chlorophenyl)methyl]-2-azaspiro[3.3]heptan-6-yl (2R,6S)-4-(5-cyanopyrimidin-2-yl)-2,6-dimethylpiperazine-1-carboxylate], for which the Ki was 10 to 100 nM. Then `C[C@@H]1CN(c2ncc(C(F)(F)F)cn2)CCN1C(=O)OC1CC2(C1)CN(Cc1ccc(Cl)cc1)C2` [Compound 478, 2-[(4-chlorophenyl)methyl]-2-azaspiro[3.3]heptan-6-yl (2R)-2-methyl-4-[5-(trifluoromethyl)pyrimidin-2-yl]piperazine-1-carboxylate], with 100 to 1000 nM; and `C[C@@H]1CN(c2cnc(C(F)(F)F)cn2)C[C@H](C)N1C(=O)OC1CC2(C1)CN(Cc1ccc(Cl)cc1)C2` [Compound 479, 2-[(4-chlorophenyl)methyl]-2-azaspiro[3.3]heptan-6-yl (2R,6S)-2,6-dimethyl-4-[5-(trifluoromethyl)pyrazin-2-yl]piperazine-1-carboxylate], with 10 to 100 nM; and `C[C@@H]1CN(c2cnc(C(F)(F)F)cn2)[C@@H](C)CN1C(=O)OC1CC2(C1)CN(Cc1ccc(Cl)cc1)C2` [Compound 480, 2-[(4-chlorophenyl)methyl]-2-azaspiro[3.3]heptan-6-yl (2R,5S)-2,5-dimethyl-4-[5-(trifluoromethyl)pyrazin-2-yl]piperazine-1-carboxylate], with 10 to 100 nM. For `C[C@@H]1CN(c2ncc(C(F)(F)F)cn2)[C@@H](C)CN1C(=O)OC1CC2(C1)CN(Cc1ccc(Cl)cc1)C2` [Compound 482, 2-[(4-chlorophenyl)methyl]-2-azaspiro[3.3]heptan-6-yl (2R,5S)-2,5-dimethyl-4-[5-(trifluoromethyl)pyrimidin-2-yl]piperazine-1-carboxylate], the Ki was below 10 nM. To `C[C@@H]1CN(c2ncc(C#N)cn2)CCN1C(=O)OC1CC2(C1)CN(Cc1ccc(Cl)cc1)C2` [Compound 483, 2-[(4-chlorophenyl)methyl]-2-azaspiro[3.3]heptan-6-yl (2R)-4-(5-cyanopyrimidin-2-yl)-2-methylpiperazine-1-carboxylate] belongs 100 to 1000 nM; to `C[C@@H]1CN(c2ncc3cc(F)ccc3n2)[C@@H](C)CN1C(=O)OC1CC2(C1)CN(Cc1ccccc1)C2` [Compound 484, 2-benzyl-2-azaspiro[3.3]heptan-6-yl (2R,5S)-4-(6-fluoroquinazolin-2-yl)-2,5-dimethylpiperazine-1-carboxylate], below 10 nM. Then `C[C@@H]1CN(c2ncc(C(=O)N(C)C)cn2)C[C@H](C)N1C(=O)OC1CC2(C1)CN(Cc1ccccc1)C2` [Compound 489, 2-benzyl-2-azaspiro[3.3]heptan-6-yl (2R,6S)-4-[5-(dimethylcarbamoyl)pyimidin-2-yl]-2,6-dimethylpiperazine-1-carboxylate], with 100 to 1000 nM; and `O=C(OC1CC2(C1)CN(Cc1ccccc1)C2)N1CC2COCC(C1)N2c1ncc(C(F)(F)F)cn1` [Compound 495, 2-benzyl-2-azaspiro[3.3]heptan-6-yl 9-[5-(trifluoromethyl)pyrimidin-2-yl]-3-oxa-7,9-diazabicyclo[3.3.1]hnonane-7-carboxylate], with 10 to 100 nM. Then `O=C(OC1CC2(C1)CN(Cc1ccccc1)C2)N1CC2COCC(C1)N2c1cnc(C(F)(F)F)cn1` [Compound 496, 2-benzyl-2-azaspiro[3.3]heptan-6-yl 9-[5-(trifluoromethyl)pyrazin-2-yl]-3-oxa-7,9-diazabicyclo[3.3.1]nonane-7-carboxylate], with 100 to 1000 nM. On to `CCc1cnc(N2C[C@@H](C)N(C(=O)OC3CC4(C3)CN(Cc3ccccc3)C4)[C@@H](C)C2)nc1` [Compound 497, 2-benzyl-2-azaspiro[3.3]heptan-6-yl (2R,6S)-4-(5-ethylpyrimidin-2-yl)-2,6-dimethylpiperazine-1-carboxylate], for which the Ki is below 10 nM. Then `C[C@@H]1CN(c2ncc(OC(F)(F)F)cn2)C[C@H](C)N1C(=O)OC1CC2(C1)CN(Cc1ccccc1)C2` [Compound 498, 2-benzyl-2-azaspiro[3.3]heptan-6-yl (2R,6S)-2,6-dimethyl-4-[5-(trifluoromethoxy)pyrimidin-2-yl]piperazine-1-carboxylate], with below 10 nM; and `C[C@@H]1CN(c2ncc(OCC3CC3)cn2)C[C@H](C)N1C(=O)OC1CC2(C1)CN(Cc1ccccc1)C2` [Compound 499, 2-benzyl-2-azaspiro[3.3]heptan-6-yl (2R,6S)-4-[5-(cyclopropylmethoxy)pyrimidin-2-yl]-2,6-dimethylpiperazine-1-carboxylate], with below 10 nM.

These data come from patent US20230129359A1, “MUSCARINIC RECEPTOR 4 ANTAGONISTS AND METHODS OF USE” (Neurocrine Biosciences, Inc., priority 2020, published 2023).
